{"source": "patent US6746688B1", "about": "“Apparatus for the transdermal treatment of Parkinson's disease” (Neuroderm Ltd., priority 1996, dated 2004)", "key": {"[1]": {"experiment": "Solubility of LD derivatives in potential solvents", "type": "physicochemical", "source_text": "The solubility of LD, LD methyl ester (LDME) and LD ethyl ester (LDEE) was examined in several potential solvents, with increasing amounts of the three LD derivatives being added to a constant volume of 5% propionic acid in water or 10% propionic acid in propylene glycol."}, "[2]": {"test_system": "Parkinson's disease", "settings": "Refs. 19-21; cited from earlier work"}, "[3]": {"experiment": "Stability of LDEE in formulations by thin layer chromatography", "type": "physicochemical", "description": "The stability of LDEE was tested in several combinations of potential components of the formulation. For this purpose, 500 mg LDEE was dissolved in 1 ml 5% propionic acid just before the beginning of the stability experiment. In parallel, 500 mg LDEE was dissolved in 1 ml propylene glycol containing 10% propionic acid. These preparations of LDEE were used as stock solutions for several tested formulations as follows: […]\n1) LDEE in aqueous solution of 5% propionic as prepared above.\n2) Same solution as in No. 1 above+5% sodium deoxycholate.\n3) Same solution as in No. 1 above+5% sodium dodecylsulfate.\n4) Same solution as in No. 1 above+5% Tween-20.\n5) Same solution as in No. 1 above+5% tritonX100.\n6) Same solution as in No. 1 above+glycerol at a ratio of 1:1.\n7) Same solution as in No. 1 above+propylene glycol at a ratio of 2:1.\n8) LDEE in propylene glycol containing 10% propionic acid.\n9) Same solution as in No. 8 above+5% sodium deoxycholate.\n10) Same solution as in No. 8 above+5% sodium dodecylsulfate.\nThe above LDEE formulations were run on a thin layer chromatography (on silica gel—Merk Art. 5735; and on cellulose—Merk Art. 5574) for a qualitative detection of LDEE and its degradative products. The various LDEE formulations were kept at room temperature for several days and separation of the LDEE and its degradative products on the thin layer chromatography were repeated at various times after dissolving the LDEE. The running solvents for the thin layer chromatography were:\na) Propanol: Butanoic Acid: Water (20:4:10).\nb) Dichloromethane: Acetone: Ethyl-Acetate: Methanol (35:15:1:0.25)."}, "[4]": {"experiment": "Pilot experiment of transdermal delivery, LDEE in serum by HPLC with electrochemical detector", "type": "in vivo", "settings": "two human volunteers, 24 h dermal exposure, propylene glycol with 10% propionic acid and 5% sodium deoxycholate or sodium dodecylsulfate", "description": "In a pilot experiment of transdermal delivery, two human volunteers were exposed for 24 h to LDEE dissolved in propylene glycol containing 10% propionic acid and 5% of either sodium deoxycholate (one volunteer) or sodium dodecylsulfate (one volunteer). Blood samples were taken at various times after the application of the LDEE on the skin and LDEE in the serum was separated on high performance liquid chromatography and determined with an electrochemical detector. The protocol and the details of this pilot study are described in the enclosed appendix. […] These levels are considered appropriate for obtaining therapeutic effect in Parkinson's patients."}}, "note": "Read-outs that look alike come from different tables or passages of the source.", "data": [{"molecule": "N[C@@H](Cc1ccc(O)c(O)c1)C(=O)O", "note": "[LD, Levodopa]", "values": [{"measurement": "solubility", "setting": "[1]", "value": "negligible amounts"}, {"measurement": "LD plasma levels at which therapeutic effects were noticed", "setting": "[2]", "value": "300 to 800", "unit": "ng/mL"}]}, {"molecule": "CCOC(=O)[C@@H](N)Cc1ccc(O)c(O)c1", "note": "[LDEE, levodopa-ethyl-ester]", "values": [{"measurement": "solubility", "setting": "[1]", "value": "at least 660 mg in 1 ml"}, {"measurement": "degradative products on thin layer chromatography", "setting": "[3]; 24 h after dissolving, room temperature, formulations that contained tritonX100", "value": "Degradative products appeared"}, {"measurement": "degradative products on thin layer chromatography", "setting": "[3]; 24 h after dissolving, room temperature, other formulations (without tritonX100)", "value": "did not show significant degradation"}, {"measurement": "degradative products on thin layer chromatography", "setting": "[3]; 48 h after dissolving, room temperature, all the aqueous solutions", "value": "degradative products appeared"}, {"measurement": "order of degradation among aqueous formulations", "setting": "[3]; 48 h after dissolving, room temperature, aqueous solutions", "value": "formulation containing tritonX100>formulation containing Tween-20 >formulation containing sodium dodecylsulfate=formulation containing sodium deoxycholate"}, {"measurement": "degradative products on thin layer chromatography", "setting": "[3]; immediately after the preparation, all formulations", "value": "No degradative products were seen"}, {"measurement": "time LDEE was stable", "setting": "[3]; propylene glycol-based formulations, room temperature", "value": "more than 48 h"}, {"measurement": "blood levels of LDEE after dermal application", "setting": "[4]", "value": "about 200 ng/ml"}]}, {"molecule": "COC(=O)[C@@H](N)Cc1ccc(O)c(O)c1", "note": "[LDME, LD methyl ester]", "values": [{"measurement": "solubility", "setting": "[1]; 5% propionic acid in water", "value": "negligible amounts"}, {"measurement": "solubility", "setting": "[1]; 10% propionic acid in propylene glycol", "value": "negligible amounts"}]}]}
